Results taken from paper PMC4741971, “The dual topoisomerase inhibitor A35 preferentially and specially targets topoisomerase 2α by enhancing pre-strand and post-strand cleavage and inhibiting DNA religation” (Oncotarget, 2015).

Key:
Assay type in all cases: biochemical
[1] = target: T1, top1 (Homo sapiens, UniProt P11387); test: top1-mediated DNA relaxation assay; also top1-mediated DNA cleavage and TARDIS in cells
T1 sequence (P11387 2-765): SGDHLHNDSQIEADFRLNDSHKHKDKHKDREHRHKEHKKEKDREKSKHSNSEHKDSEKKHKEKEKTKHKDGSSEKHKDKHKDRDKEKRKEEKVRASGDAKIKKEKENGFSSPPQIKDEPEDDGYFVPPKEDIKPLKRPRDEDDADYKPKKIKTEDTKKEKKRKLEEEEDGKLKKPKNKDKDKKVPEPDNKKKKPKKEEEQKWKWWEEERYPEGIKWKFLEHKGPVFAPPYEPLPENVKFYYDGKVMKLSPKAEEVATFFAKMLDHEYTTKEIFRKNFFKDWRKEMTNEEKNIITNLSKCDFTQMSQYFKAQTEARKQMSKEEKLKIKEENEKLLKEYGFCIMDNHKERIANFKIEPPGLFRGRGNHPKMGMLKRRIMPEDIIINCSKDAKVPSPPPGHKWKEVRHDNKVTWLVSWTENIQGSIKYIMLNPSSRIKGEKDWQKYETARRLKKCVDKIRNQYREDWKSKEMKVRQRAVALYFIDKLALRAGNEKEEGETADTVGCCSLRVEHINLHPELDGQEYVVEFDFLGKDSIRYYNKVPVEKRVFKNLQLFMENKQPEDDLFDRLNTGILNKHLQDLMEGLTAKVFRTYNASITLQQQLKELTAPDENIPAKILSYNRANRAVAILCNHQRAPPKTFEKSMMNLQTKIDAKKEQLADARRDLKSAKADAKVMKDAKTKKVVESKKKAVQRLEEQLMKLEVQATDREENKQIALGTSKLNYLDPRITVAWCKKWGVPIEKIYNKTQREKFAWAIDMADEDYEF

[2] = target: T2, top2α (Homo sapiens, UniProt P11388); test: top2α-mediated pBR322 DNA relaxation assay; also cleavage and religation assays and TARDIS in cells
T2 construct: gene TOP2A
T2 sequence (P11388 whole entry): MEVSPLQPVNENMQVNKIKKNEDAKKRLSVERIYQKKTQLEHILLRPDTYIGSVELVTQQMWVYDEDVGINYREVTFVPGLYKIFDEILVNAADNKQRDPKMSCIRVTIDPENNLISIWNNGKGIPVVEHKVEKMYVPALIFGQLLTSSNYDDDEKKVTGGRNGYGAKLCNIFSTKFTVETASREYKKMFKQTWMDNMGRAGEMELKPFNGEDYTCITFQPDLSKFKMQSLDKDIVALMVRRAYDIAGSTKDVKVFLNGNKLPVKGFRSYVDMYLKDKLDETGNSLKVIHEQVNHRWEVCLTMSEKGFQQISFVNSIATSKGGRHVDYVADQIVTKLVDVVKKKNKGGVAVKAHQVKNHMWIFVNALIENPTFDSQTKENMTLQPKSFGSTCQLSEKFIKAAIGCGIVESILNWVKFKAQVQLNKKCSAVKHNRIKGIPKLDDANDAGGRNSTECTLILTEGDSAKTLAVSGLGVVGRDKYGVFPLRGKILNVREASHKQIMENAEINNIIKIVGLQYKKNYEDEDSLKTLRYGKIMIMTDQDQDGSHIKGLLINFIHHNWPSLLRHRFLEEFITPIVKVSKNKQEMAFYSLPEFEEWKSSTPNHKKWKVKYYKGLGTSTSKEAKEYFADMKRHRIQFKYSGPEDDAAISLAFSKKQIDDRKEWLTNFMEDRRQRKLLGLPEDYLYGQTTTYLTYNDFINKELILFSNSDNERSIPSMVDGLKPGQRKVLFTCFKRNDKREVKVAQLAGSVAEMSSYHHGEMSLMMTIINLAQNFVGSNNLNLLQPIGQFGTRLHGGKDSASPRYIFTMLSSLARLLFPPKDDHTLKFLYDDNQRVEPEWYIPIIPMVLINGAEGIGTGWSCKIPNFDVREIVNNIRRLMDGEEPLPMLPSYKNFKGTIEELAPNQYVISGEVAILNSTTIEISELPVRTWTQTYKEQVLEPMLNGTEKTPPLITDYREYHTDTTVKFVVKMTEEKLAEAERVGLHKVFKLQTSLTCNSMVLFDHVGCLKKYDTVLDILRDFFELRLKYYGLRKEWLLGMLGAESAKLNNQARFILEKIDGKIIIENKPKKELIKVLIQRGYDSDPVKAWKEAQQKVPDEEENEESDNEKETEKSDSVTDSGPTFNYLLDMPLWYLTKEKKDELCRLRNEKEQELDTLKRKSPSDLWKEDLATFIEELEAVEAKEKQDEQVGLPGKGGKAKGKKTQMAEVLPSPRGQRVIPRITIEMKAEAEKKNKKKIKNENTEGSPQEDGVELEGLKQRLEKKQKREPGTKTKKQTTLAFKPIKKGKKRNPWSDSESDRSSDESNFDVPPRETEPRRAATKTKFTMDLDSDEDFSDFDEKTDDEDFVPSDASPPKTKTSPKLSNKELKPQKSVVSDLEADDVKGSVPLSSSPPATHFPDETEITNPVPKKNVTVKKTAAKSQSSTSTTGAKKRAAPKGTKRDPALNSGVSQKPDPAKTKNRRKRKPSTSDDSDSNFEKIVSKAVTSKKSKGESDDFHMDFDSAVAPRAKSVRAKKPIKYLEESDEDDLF

[3] = target: T1, top1; test: top1-mediated cleavage of […]'-end-labeled 117-bp oligonucleotide
[4] = target: T3, top2β (Homo sapiens, UniProt Q02880); test: purified top2β-mediated pBR322 DNA cleavage assay
T3 construct: gene TOP2B
T3 sequence (Q02880 2-1626): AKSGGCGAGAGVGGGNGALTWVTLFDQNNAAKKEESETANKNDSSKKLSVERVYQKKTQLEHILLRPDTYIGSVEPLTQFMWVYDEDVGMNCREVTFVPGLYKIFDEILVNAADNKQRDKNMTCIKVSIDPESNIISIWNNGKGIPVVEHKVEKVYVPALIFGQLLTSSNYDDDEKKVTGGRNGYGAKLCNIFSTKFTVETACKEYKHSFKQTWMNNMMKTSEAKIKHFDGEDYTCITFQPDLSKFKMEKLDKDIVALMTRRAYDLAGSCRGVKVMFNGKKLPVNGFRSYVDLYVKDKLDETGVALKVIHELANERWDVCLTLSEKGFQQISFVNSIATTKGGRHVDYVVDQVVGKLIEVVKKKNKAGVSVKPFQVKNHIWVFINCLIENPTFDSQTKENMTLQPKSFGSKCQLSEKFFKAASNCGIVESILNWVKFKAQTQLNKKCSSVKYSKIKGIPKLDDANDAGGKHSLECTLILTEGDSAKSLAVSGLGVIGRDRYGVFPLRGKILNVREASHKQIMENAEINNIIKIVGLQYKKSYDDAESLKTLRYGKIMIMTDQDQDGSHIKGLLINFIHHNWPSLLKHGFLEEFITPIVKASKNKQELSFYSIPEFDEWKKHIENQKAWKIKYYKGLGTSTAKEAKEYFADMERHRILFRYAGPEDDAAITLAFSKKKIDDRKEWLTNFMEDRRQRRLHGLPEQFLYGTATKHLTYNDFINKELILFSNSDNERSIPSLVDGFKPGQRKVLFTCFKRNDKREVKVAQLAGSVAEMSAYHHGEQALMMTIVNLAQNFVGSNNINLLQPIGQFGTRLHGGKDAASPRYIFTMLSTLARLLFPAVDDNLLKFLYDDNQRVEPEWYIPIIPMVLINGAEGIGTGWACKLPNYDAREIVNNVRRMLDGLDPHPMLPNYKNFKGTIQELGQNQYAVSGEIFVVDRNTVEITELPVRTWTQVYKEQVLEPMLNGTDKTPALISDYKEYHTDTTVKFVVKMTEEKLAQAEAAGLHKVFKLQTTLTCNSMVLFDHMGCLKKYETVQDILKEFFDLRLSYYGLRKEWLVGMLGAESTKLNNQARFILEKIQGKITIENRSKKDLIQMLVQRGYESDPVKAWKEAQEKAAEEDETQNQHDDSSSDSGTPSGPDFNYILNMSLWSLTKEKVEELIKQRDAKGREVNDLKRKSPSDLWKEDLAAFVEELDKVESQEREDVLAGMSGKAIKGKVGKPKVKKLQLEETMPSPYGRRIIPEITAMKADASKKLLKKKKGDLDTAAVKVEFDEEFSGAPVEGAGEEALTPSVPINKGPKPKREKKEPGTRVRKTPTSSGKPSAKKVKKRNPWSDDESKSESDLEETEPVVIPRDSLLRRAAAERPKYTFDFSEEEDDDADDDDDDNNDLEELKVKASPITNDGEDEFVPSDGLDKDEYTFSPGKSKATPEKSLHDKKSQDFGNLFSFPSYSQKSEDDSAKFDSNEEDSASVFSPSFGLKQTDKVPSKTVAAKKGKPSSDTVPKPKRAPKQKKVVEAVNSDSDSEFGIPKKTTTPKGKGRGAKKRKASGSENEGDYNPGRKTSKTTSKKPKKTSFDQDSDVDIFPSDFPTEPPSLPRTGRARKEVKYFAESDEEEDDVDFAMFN

[5] = target: T2, top2α; test: top2α-mediated pBR322 DNA relaxation assay at […]

COc1ccc2c(c[n+]3c4c2ccc2c5c(cc(c24)CC3)OCO5)c1OC(=O)c1ccccc1 [A35]
IC50 [1]: 22.1 µM
IC50 [2]: 0.56 µM

CC[C@@]1(O)C(=O)OCc2c1cc1n(c2=O)Cc2cc3c(CN(C)C)c(O)ccc3nc2-1 [TPT, topotecan]
top1-mediated cleavage of 3'-end-labeled 117-bp oligonucleotide [3]: the DNA breakage effect was weak and far less than the positive control TPT (topotecan)

COc1cc([C@@H]2c3cc4c(cc3[C@@H](O[C@@H]3O[C@@H]5CO[C@@H](C)O[C@H]5[C@H](O)[C@H]3O)[C@H]3COC(=O)[C@H]23)OCO4)cc(OC)c1O [VP16, etoposide]
purified top2β-mediated pBR322 DNA cleavage assay [4]: A35 did not lead to DNA breakage mediated by top2β and the positive (VP16) control induced significant DNA breakage
top2α-mediated pBR322 DNA relaxation assay at 10 μM [5]: inhibitory activity of A35 on top top2α was much higher than that of etoposide (VP16)
